In US20050148653A1, “Polymaleimide compounds and their medical use” (priority 2001, published 2005):

Experiments:
[1] = system: HIV (IHV-1RF); experiment: Anti-viral (virucidal) assay: plate-bound HIV treated 10 minutes, C8166 cells added, syncytium score and XTT; format: cell-based; conditions: for Syncytia score day 5 (quadruplicate wells) / Syncytia score day 6 (quadruplicate wells): C8166 cells; for Mean Optical Readings at 450 nm: XTT cell viability; for Syncytia score day 6 (quadruplicate wells) / Mean Optical Readings at 450 nm / IC50: day 6; for IC50: XTT, virus treated 10 minutes, read-out: IC50 (virucidal)
Protocol: HIV was attached to the surface of 96-well cell culture plates using 100 μl of 50 μg/ml poly-L-lysine hydrobromide (PLL) of molecular weight >300 K for 1 h at RT. The outer wells were left uncoated and filled with 250 μl of PBS to counteract the effects of evaporation. The coated wells were washed twice with PBS and 25 μl of RPMI 1640 medium containing 5×10^3 TCID50 of IHV-1RF was added and incubated for 1 h at RT. The wells were then washed twice with PBS and 25 μl of varying concentrations of the test compounds made up with serum free medium (containing a constant 10% DMSO) were added to the wells in quadruplicate and the plates incubated at 37° C. for 10 minutes. The wells were again washed twice with PBS and 5×10^4 C8166 cells in a volume of 300 μl distributed to each well and the plates incubated for 5 and 6 days respectively. On days 5 and 6 the cells were assessed microscopically for the presence of cytopathic effect (syncytium formation) and recorded. In order to quantify the cytopathic effect, XIT which is metabolised by viable but not dead cells, was added and the absorbance read at 450 nm after […] incubation at 37° C.
An assessment of viral cytopathic effect was made microscopically on days 5 and 6, but the end point of the experiment was on day 6 when the level of virus infection (as determined by cell viability) was quantified by the use of XTT.

[2] = system: Chlamydia trachomatis; experiment: Chlamydia assay: transient treatment of Chlamydia with maleimides, infection of McCoy cells, iodine-stained inclusions counted; format: cell-based; conditions: for IODINE-STAINED INCLUSIONS/FIELD F1: field 1; for IODINE-STAINED INCLUSIONS/FIELD F2: field 2; for IODINE-STAINED INCLUSIONS/FIELD F3: field 3; for IODINE-STAINED INCLUSIONS/FIELD F4: field 4; for IODINE-STAINED INCLUSIONS/FIELD F5: field 5; for MEAN COUNT/FIELD (iodine-stained inclusions): mean of 5 fields; for COMMENTS: inclusions seen on entire coverslip: re-examined under low power; for TOTAL COUNT/FIELDS (iodine-stained inclusions): sum of 5 fields; for inhibition of the infection of McCoy cells with chlamydia: transient exposure of chlamydia to compound
Protocol: Purified Chlamydia trachomatis (250 μl) was added to 250 μl of each compound concentration and the mixtures incubated at room temperature for 5 minutes. The tubes were then centrifuged (15000 rpm, 15 minutes), the supernatant decanted and the pellet washed serum free MEM (with 0.5 mls). This step was repeated and the resultant pellet resuspended MEM (in 0.5 ml) and inoculated into a confluent shell vial (coverslip) cultures of McCoy cells. The cultures were centrifuged (3000 rpm, 1 hour at 37° C.) and incubated for a further 2 hours prior to being changed onto MEM with 10% foetal calf serum, I μg/rl cycloheximide, 0.5% added glucose, vancomycin, streptomycin and amphoteracin B (Fungizone). The cultures were incubated for 68 hours, fixed in methanol and stained with Lugol's iodine. 3 replicates of each positive control (with and without DMSO) were included, as well as 2 uninoculated cell controls. Each coverslip culture was examined using low power (10×) objective to ensure that inclusions were evenly distributed and 5 high power (×40) fields were selected at random from different areas of the coverslip. Iodine stained inclusions were counted. Where no inclusions were seen on high power, the culture was re-examined under low power. Table 1. Effect of Transient Treatment with maleimides on Chlamydia Infection of McCoy Cell In Vitro. Chlamydia was pre-treated with each of the indicated maleimides for 5 minutes and the compound removed by centrifugation. McCoy cells were then exposed to the compound pre-treated chlamydia for 68 hours and inclusions counted following staining of cells with Lugols iodine.

[3] = Human immunodeficiency virus 1, C8166
[4] = final conc 0.02 (M), working conc 0.04 (M)
[5] = final conc 0.4 (M), working conc 0.8 (M)
[6] = final conc 1 (M), working conc 2 (M), 5 minutes pre-treatment, McCoy cells 68 hours
[7] = final conc 1 (M), working conc 2 (M)

O=C1C=CC(=O)N1CCN1C(=O)C=CC1=O [Compound 1, ethyl bis-maleimide]
Syncytia score day 5 (quadruplicate wells) ([1]; Conc 0.003 mM): ++++ (50-100% syncytia) | Syncytia score day 6 (quadruplicate wells) ([1]; Conc 0.003 mM): ++++ (50-100% syncytia) | Mean Optical Readings at 450 nm ([1]; Conc 0.003 mM): 0.4875 | Syncytia score day 5 (quadruplicate wells) ([1]; Conc 0.01 mM): ++++ (50-100% syncytia) | Syncytia score day 6 (quadruplicate wells) ([1]; Conc 0.01 mM): ++++ (50-100% syncytia) | Mean Optical Readings at 450 nm ([1]; Conc 0.01 mM): 0.5028 | Syncytia score day 5 (quadruplicate wells) ([1]; Conc 0.03 mM): ++++ (50-100% syncytia) | Syncytia score day 6 (quadruplicate wells) ([1]; Conc 0.03 mM): ++++ (50-100% syncytia) | Mean Optical Readings at 450 nm ([1]; Conc 0.03 mM): 0.5142 | Syncytia score day 5 (quadruplicate wells) ([1]; Conc 0.1 mM): ++++ (50-100% syncytia) | Syncytia score day 6 (quadruplicate wells) ([1]; Conc 0.1 mM): ++++ (50-100% syncytia) | Mean Optical Readings at 450 nm ([1]; Conc 0.1 mM): 0.5347 | Syncytia score day 5 (quadruplicate wells) ([1]; Conc 0.3 mM): +++ (25-50% syncytia) | Syncytia score day 6 (quadruplicate wells) ([1]; Conc 0.3 mM): +++ (25-50% syncytia) | Mean Optical Readings at 450 nm ([1]; Conc 0.3 mM): 0.5853 | Mean Optical Readings at 450 nm ([1]; Conc 1 mM): 1.181 | IC50 [1, 3]: 1000 µM | IODINE-STAINED INCLUSIONS/FIELD F1 [2, 4]: 0 inclusions/field | IODINE-STAINED INCLUSIONS/FIELD F2 [2, 4]: 0 inclusions/field | IODINE-STAINED INCLUSIONS/FIELD F3 [2, 4]: 0 inclusions/field | IODINE-STAINED INCLUSIONS/FIELD F4 [2, 4]: 0 inclusions/field | IODINE-STAINED INCLUSIONS/FIELD F5 [2, 4]: 0 inclusions/field | MEAN COUNT/FIELD (iodine-stained inclusions) [2, 4]: 0 inclusions/field | COMMENTS: inclusions seen on entire coverslip [2, 4]: 6 inclusions | TOTAL COUNT/FIELDS (iodine-stained inclusions) [2, 4]: 0 | IODINE-STAINED INCLUSIONS/FIELD F1 [2, 5]: 0 inclusions/field | IODINE-STAINED INCLUSIONS/FIELD F2 [2, 5]: 0 inclusions/field | IODINE-STAINED INCLUSIONS/FIELD F3 [2, 5]: 0 inclusions/field | IODINE-STAINED INCLUSIONS/FIELD F4 [2, 5]: 0 inclusions/field | IODINE-STAINED INCLUSIONS/FIELD F5 [2, 5]: 0 inclusions/field | MEAN COUNT/FIELD (iodine-stained inclusions) [2, 5]: 0 inclusions/field | COMMENTS: inclusions seen on entire coverslip [2, 5]: No | TOTAL COUNT/FIELDS (iodine-stained inclusions) [2, 5]: 0 | IODINE-STAINED INCLUSIONS/FIELD F1 [2, 6]: 0 inclusions/field | IODINE-STAINED INCLUSIONS/FIELD F2 [2, 7]: 0 inclusions/field | IODINE-STAINED INCLUSIONS/FIELD F3 [2, 7]: 0 inclusions/field | IODINE-STAINED INCLUSIONS/FIELD F4 [2, 7]: 0 inclusions/field | IODINE-STAINED INCLUSIONS/FIELD F5 [2, 7]: 0 inclusions/field | MEAN COUNT/FIELD (iodine-stained inclusions) [2, 7]: 0 inclusions/field | COMMENTS: inclusions seen on entire coverslip [2, 7]: No | TOTAL COUNT/FIELDS (iodine-stained inclusions) [2, 7]: 0 | inhibition of the infection of McCoy cells with chlamydia [2]: dose-dependent inhibition

O=C1C=CC(=O)N1c1ccc(OCCOCCOCCOCCOc2ccc(N3C(=O)C=CC3=O)cc2)cc1 [Compound 2, PEG(5) bis phenyl bis maleimide]
Syncytia score day 5 (quadruplicate wells) ([1]; Conc 0.003 mM): ++++ (50-100% syncytia) | Syncytia score day 6 (quadruplicate wells) ([1]; Conc 0.003 mM): ++++ (50-100% syncytia) | Mean Optical Readings at 450 nm ([1]; Conc 0.003 mM): 0.4883 | Syncytia score day 5 (quadruplicate wells) ([1]; Conc 0.01 mM): ++++ (50-100% syncytia) | Syncytia score day 6 (quadruplicate wells) ([1]; Conc 0.01 mM): ++++ (50-100% syncytia) | Mean Optical Readings at 450 nm ([1]; Conc 0.01 mM): 0.4895 | Syncytia score day 5 (quadruplicate wells) ([1]; Conc 0.03 mM): ++++ (50-100% syncytia) | Syncytia score day 6 (quadruplicate wells) ([1]; Conc 0.03 mM): ++++ (50-100% syncytia) | Mean Optical Readings at 450 nm ([1]; Conc 0.03 mM): 0.4928 | Syncytia score day 5 (quadruplicate wells) ([1]; Conc 0.1 mM): ++++ (50-100% syncytia) | Syncytia score day 6 (quadruplicate wells) ([1]; Conc 0.1 mM): ++++ (50-100% syncytia) | Mean Optical Readings at 450 nm ([1]; Conc 0.1 mM): 0.4983 | Syncytia score day 5 (quadruplicate wells) ([1]; Conc 0.3 mM): +++ (25-50% syncytia) | Syncytia score day 6 (quadruplicate wells) ([1]; Conc 0.3 mM): ++++ (50-100% syncytia) | Mean Optical Readings at 450 nm ([1]; Conc 0.3 mM): 0.5092 | Mean Optical Readings at 450 nm ([1]; Conc 1 mM): 0.9895 | IC50 [1, 3]: ~1000 µM | inhibition at 1000 µM ([1]; Human immunodeficiency virus 1, C8166, at 1 mM): ~50% | IODINE-STAINED INCLUSIONS/FIELD F1 [2, 4]: 3 inclusions/field | IODINE-STAINED INCLUSIONS/FIELD F2 [2, 4]: 2 inclusions/field | IODINE-STAINED INCLUSIONS/FIELD F3 [2, 4]: 6 inclusions/field | IODINE-STAINED INCLUSIONS/FIELD F4 [2, 4]: 5 inclusions/field | IODINE-STAINED INCLUSIONS/FIELD F5 [2, 4]: 7 inclusions/field | MEAN COUNT/FIELD (iodine-stained inclusions) [2, 4]: 5 inclusions/field | TOTAL COUNT/FIELDS (iodine-stained inclusions) [2, 4]: 23 | IODINE-STAINED INCLUSIONS/FIELD F1 [2, 5]: 1 inclusions/field | IODINE-STAINED INCLUSIONS/FIELD F2 [2, 5]: 2 inclusions/field | IODINE-STAINED INCLUSIONS/FIELD F3 [2, 5]: 2 inclusions/field | IODINE-STAINED INCLUSIONS/FIELD F4 [2, 5]: 1 inclusions/field | IODINE-STAINED INCLUSIONS/FIELD F5 [2, 5]: 5 inclusions/field | MEAN COUNT/FIELD (iodine-stained inclusions) [2, 5]: 2 inclusions/field | TOTAL COUNT/FIELDS (iodine-stained inclusions) [2, 5]: 11 | IODINE-STAINED INCLUSIONS/FIELD F1 [2, 6]: 0 inclusions/field | IODINE-STAINED INCLUSIONS/FIELD F2 [2, 7]: 0 inclusions/field | IODINE-STAINED INCLUSIONS/FIELD F3 [2, 7]: 0 inclusions/field | IODINE-STAINED INCLUSIONS/FIELD F4 [2, 7]: 0 inclusions/field | IODINE-STAINED INCLUSIONS/FIELD F5 [2, 7]: 0 inclusions/field | MEAN COUNT/FIELD (iodine-stained inclusions) [2, 7]: 0 inclusions/field | COMMENTS: inclusions seen on entire coverslip [2, 7]: 6 inclusions | TOTAL COUNT/FIELDS (iodine-stained inclusions) [2, 7]: 0 | inhibition of the infection of McCoy cells with chlamydia [2]: dose-dependent inhibition
